# Columns and labels:
# [1] = biological target: DNA gyrase (Staphylococcus aureus, UniProt P0A0K8+P20831)
# Description: Inhibition of Staphylococcus aureus N-terminal His6-tagged DNA gyrase subunit GyrA/GyrB supercoiling activity expressed in Escherichia coli BL21 (DE3) using relaxed pBR322 DNA as substrate after 1 hr by agarose gel electrophoresis
# [2] = Inhibition of Staphylococcus aureus topoisomerase 4 subunit ParC/ParE relaxation expressed in Escherichia coli BL21 (DE3) using supercoiled pBR322 DNA as substrate after 1 hr by agarose gel electrophoresis
# [3] = system: Escherichia coli; assay: Antibacterial activity against TolC deficient Escherichia coli by broth microdilution method; format: functional
# [4] = system: Staphylococcus aureus; assay: Antibacterial activity against Staphylococcus aureus ATCC 29213 by broth microdilution method; format: functional
# [5] = Inhibition of Escherichia coli N-terminal His6-tagged DNA gyrase subunit GyrA/GyrB ATPase activity expressed in Escherichia coli BL21 (DE3) after 40 mins by spectrophotometric analysis
# [6] = Inhibition of Escherichia coli N-terminal His6-tagged DNA gyrase subunit GyrA/GyrB supercoiling activity expressed in Escherichia coli BL21 (DE3) using relaxed pBR322 DNA as substrate after 1 hr by agarose gel electrophoresis
# [7] = Inhibition of Escherichia coli DNA topoisomerase 4 subunit ParC/ParE relaxation expressed in Escherichia coli BL21 (DE3) using supercoiled pBR322 DNA as substrate after 1 hr by agarose gel electrophoresis
# [8] = biological target: hERG (KCNH2) (Homo sapiens, UniProt Q12809); assay: Inhibition of human ERG expressed in CHO cells at 10 uM after 3 mins at -80 mV holding potential by Qpatch assay; format: cell-based; details: CHO cells expressing human ERG
# [9] = Octanol-phosphate buffer partition coefficient, logD of compound at pH 7.4 by LC/UV analysis; format: physicochemical
# hERG (KCNH2), sequence (Q12809 whole entry): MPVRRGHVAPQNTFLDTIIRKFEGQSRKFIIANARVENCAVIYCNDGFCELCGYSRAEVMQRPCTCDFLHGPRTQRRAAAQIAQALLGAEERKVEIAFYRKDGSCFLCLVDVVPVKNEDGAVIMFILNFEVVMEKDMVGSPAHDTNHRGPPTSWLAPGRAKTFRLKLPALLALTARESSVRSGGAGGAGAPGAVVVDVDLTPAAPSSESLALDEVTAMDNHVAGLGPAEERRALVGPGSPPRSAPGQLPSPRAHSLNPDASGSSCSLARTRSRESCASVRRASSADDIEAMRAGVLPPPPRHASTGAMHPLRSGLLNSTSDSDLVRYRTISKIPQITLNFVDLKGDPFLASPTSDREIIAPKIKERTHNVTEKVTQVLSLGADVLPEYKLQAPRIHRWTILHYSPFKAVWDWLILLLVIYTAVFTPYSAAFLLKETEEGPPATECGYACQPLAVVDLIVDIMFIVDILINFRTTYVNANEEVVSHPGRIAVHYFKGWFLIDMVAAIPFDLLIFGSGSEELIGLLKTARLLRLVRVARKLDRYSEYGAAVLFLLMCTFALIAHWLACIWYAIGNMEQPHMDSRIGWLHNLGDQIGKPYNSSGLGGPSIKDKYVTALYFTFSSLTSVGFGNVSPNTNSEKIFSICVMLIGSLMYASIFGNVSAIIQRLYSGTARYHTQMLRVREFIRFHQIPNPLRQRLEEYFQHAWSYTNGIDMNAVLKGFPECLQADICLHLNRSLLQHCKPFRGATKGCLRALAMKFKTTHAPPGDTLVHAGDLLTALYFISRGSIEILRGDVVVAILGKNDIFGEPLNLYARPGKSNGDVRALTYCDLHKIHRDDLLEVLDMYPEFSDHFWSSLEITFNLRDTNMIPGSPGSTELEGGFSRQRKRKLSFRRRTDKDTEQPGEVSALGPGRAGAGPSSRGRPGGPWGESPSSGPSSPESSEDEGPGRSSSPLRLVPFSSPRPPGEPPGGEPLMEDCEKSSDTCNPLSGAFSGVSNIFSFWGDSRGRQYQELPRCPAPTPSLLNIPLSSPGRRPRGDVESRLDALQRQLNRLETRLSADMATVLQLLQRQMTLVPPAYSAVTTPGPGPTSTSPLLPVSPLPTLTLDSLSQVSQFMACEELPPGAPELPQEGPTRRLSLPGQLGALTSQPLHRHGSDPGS
SMILES,IC50 [1],IC50 [2],MIC [3],MIC [4],IC50 [5],IC50 [6],IC50 [7],logD [9],"inhibition at 0.05 h, 10 µM [8]"
CCNC(=O)Nc1cc2c(-c3ccncn3)ccc(C)c2cn1,500 nM,32000 nM,4 µg/mL,4 µg/mL,< 200 nM,–,32000 nM,–,–
CCNC(=O)Nc1cc2c(-c3cccnc3)cccc2cn1,8000 nM,> 256000 nM,> 32 µg/mL,> 32 µg/mL,1000 nM,32000 nM,128000 nM,–,–
CCNC(=O)Nc1cc2c(-c3cnn(C)c3)ccc(C)c2cn1.Cl,125 nM,> 256000 nM,16 µg/mL,4 µg/mL,< 200 nM,8000 nM,32000 nM,–,–
CCNC(=O)Nc1cc2c(-c3ccc(C#N)cc3)ccc(C)c2cn1,30 nM,> 256000 nM,> 32 µg/mL,> 32 µg/mL,< 200 nM,125 nM,> 256000 nM,–,–
CCNC(=O)Nc1cc2c(-c3ccncc3)ccc(Oc3cccnc3)c2cn1,30 nM,2000 nM,–,0.25 µg/mL,–,125 nM,8000 nM,–,–
CCNC(=O)Nc1cc2c(-c3ccncc3)ccc(-c3cccnc3)c2cn1,125 nM,> 256000 nM,–,> 16 µg/mL,–,2000 nM,> 256000 nM,–,–
CCNC(=O)Nc1cc2c(-c3ccnc(C)c3)ccc(Cc3cccnc3)c2cn1.Cl,30 nM,2000 nM,–,0.5 µg/mL,–,125 nM,8000 nM,–,–
CCNC(=O)Nc1cc2c(-c3cncnc3)ccc(C)c2cn1,500 nM,> 256000 nM,> 32 µg/mL,> 32 µg/mL,< 200 nM,2000 nM,> 256000 nM,–,–
CCNC(=O)Nc1cc2cccc(C)c2cn1,8000 nM,> 256000 nM,> 32 µg/mL,32 µg/mL,1000 nM,32000 nM,128000 nM,–,–
CCNC(=O)Nc1cc2c(-c3cccnc3)ccc(C)c2cn1,125 nM,> 256000 nM,> 32 µg/mL,2 µg/mL,< 200 nM,2000 nM,> 256000 nM,–,–

# More lines, main results first:
IC50 [1],IC50 [2],MIC [3],MIC [4],IC50 [5],IC50 [6],IC50 [7],logD [9],SMILES,"inhibition at 0.05 h, 10 µM [8]"
30 nM,8000 nM,4 µg/mL,0.5 µg/mL,< 200 nM,125 nM,8000 nM,–,CCNC(=O)Nc1cc2c(-c3ccnc(C)c3)ccc(C)c2cn1,–
8 nM,125 nM,–,0.5 µg/mL,–,–,500 nM,–,CCNC(=O)Nc1cc2c(-c3ccnc(C)c3)ccc(Nc3cccc(C(=O)O)c3)c2cn1,–
30 nM,8000 nM,–,1 µg/mL,–,–,–,2.5,CCNC(=O)Nc1cc2c(-c3ccnc(C)c3)ccc(CNC(=O)OCCO)c2cn1,19%
< 4 nM,500 nM,–,0.125 µg/mL,–,–,–,2.7,CCNC(=O)Nc1cc2c(-c3ccncc3)ccc(CNC(=O)OC)c2cn1,41%
8 nM,125 nM,–,0.06 µg/mL,–,30 nM,500 nM,–,CCNC(=O)Nc1cc2c(-c3ccncc3)ccc(Nc3cccnc3)c2cn1,–
8 nM,2000 nM,–,0.5 µg/mL,–,–,–,2.6,CCNC(=O)Nc1cc2c(-c3ccnc(C)c3)ccc(CNC(=O)CCOC)c2cn1,0%
< 4 nM,2000 nM,–,0.06 µg/mL,–,–,–,3.4,CCNC(=O)Nc1cc2c(-c3ccnc(C)c3)ccc(CNC(=O)C3CC3)c2cn1,75%
< 4 nM,500 nM,–,0.25 µg/mL,–,–,–,3.7,CCNC(=O)Nc1cc2c(-c3ccncc3)ccc(CNC(=O)OC(C)C)c2cn1,63%
< 4 nM,500 nM,–,2 µg/mL,–,–,–,2,CCNC(=O)Nc1cc2c(-c3ccncc3)ccc(CNC(=O)OCCO)c2cn1,0%
